Data published in a melting point compilation (Tetko et al.; mined from patent text by program, amines drawn as free bases though some values may be those of a salt).

melting point [°C]	Compound
53 to 54	CCCCCCCCCCCCCCCCOC(=O)c1cnccn1
140 to 143	C#CC1=Cc2ccccc2Sc2ccc(S(C)(=O)=O)cc21
128 to 129	COc1nc(C)cnc1NS(=O)(=O)c1cccnc1-c1ccc(CC(C)C)cc1
85	CSc1ccc(NC#N)c(-c2ccccc2)c1
167 to 168	O=C(O)c1ccc(F)c(F)c1Cl
153 to 154	CCCCCNS(=O)(=O)NC(=O)CCc1ccc(OCCOC)cc1Oc1ncc(C(F)(F)F)cc1Cl
173 to 174	COc1ccc(C2=NNC(=O)[C@H]3CC=CC[C@@H]23)cc1OC (relative stereo)
186 to 187	Cc1ccccc1C(=O)NC(NC(=S)Nc1cccnc1)C(C)(C)C (configuration not stated)
243 to 245	CCn1cc(C(=O)NCCc2ccncc2)c(=O)c2cc(F)cc(C)c21
198 to 200	CC1(C)CC(=O)c2c(SCc3ccco3)sc(-c3cc[nH]n3)c2C1
92 to 105	C=CCNc1cc(C)nc2c(-c3ccccc3)n[nH]c12
33 to 37	FC(F)(F)c1cccc(-c2cc(CCl)on2)c1
196 to 198	COC(=O)C(=CNc1ncnc2ccc(NC(=O)CC(C)(C)C)cc12)C(=O)OC
147 to 149	CC(C)(C)OC(=O)NCc1ccc(-c2ccc(O)cc2)cc1
218 to 221	CC(=O)C1CNCc2c1[nH]c1cnc3ccccc3c21 (configuration not stated)
45 to 47	CCOc1nc(=O)n(-c2cc(C(=O)OC)c(Cl)cc2F)c(=O)n1C
150 to 152	N#Cc1cc(C(F)(F)F)cc(Cl)c1F
136 to 137	CC(O)c1cc(-c2cccc(F)c2)ccc1N (configuration not stated)
77 to 78	Cc1c(C)c2c(c(C)c1N)CC(C)(CN1CCN(C(=O)CC(c3ccccc3)c3ccccc3)CC1)O2 (configuration not stated)
265 to 266	COc1ccc(-c2nc(N)sc2-c2cccnc2)cc1
> 300	Cc1cn2c(=O)c(C(=O)O)cnc2c2cc(N)ccc12
110 to 111	O=C(NCCCSc1ccncc1)c1ccccc1CO
265 to 270	Nc1ccc(C=C2SC(=O)NC2=O)cc1
96 to 100	O=c1c2c([nH]n1-c1cc(OCC3CCCSC3)c(Cl)cc1F)CCCC2 (configuration not stated)
212 to 214	COc1ccc2c(=O)c(S(C)(=O)=O)cn(C)c2c1

melting point [°C]	Compound
163 to 164	COc1ccc(NN=C(C)C)cc1
175 to 178	Cn1c(Br)c(C#N)c(Br)c1C#N
230 to 232	O=S(=O)(NC(CO)(CO)CO)c1cncc(C#Cc2cnn3c(C(F)(F)F)cc(-c4ccc(C(F)(F)F)cc4)nc23)c1
121 to 122	Cc1cc2c(-c3cccc(C(F)(F)F)c3)nc(C#N)nc2s1
165	COc1cccc2c1C(=CC(=O)c1ccccc1)OC2=O
86 to 87	CC(C)(C)c1cc(CC2CO2)cc(C(C)(C)C)c1O (configuration not stated)
205	N[C@@H](C/C(=C\C1CCCCC1)C(=O)O)C(=O)O
209	CC(=O)C1=C(O)C(=C(C)Nc2cccc(NS(=O)(=O)c3ccccc3)c2)C(=O)OC1=O
32 to 33	OCC#Cc1ccc(F)cc1
70 to 71	Cc1ccc(S(=O)(=O)OCC(COC(C)(C)C)OS(=O)(=O)c2ccc(C)cc2)cc1 (single isomer, unassigned; (+))
49 to 53	CC(=C(C#N)N=CN(C)C)N1CCCC1
76 to 78	O=C(O)CCCCCCCCCCn1c(-c2ccccc2)nc(-c2ccccc2)c1-c1ccccc1
184 to 185	CC(C)(C)OC(=O)N1CCC[C@@H]1[C@@H](NC(=O)c1ccc(Cl)cc1)NC(=NC#N)Nc1cccnc1
104 to 106	CC(=O)NC(C)(C)c1ccc(CN2CCN(c3ccc(F)cc3)CC2)cc1
223 to 224	N#CNC=Nc1ccc(-c2cc[nH]n2)cc1
149 to 150	CCNc1nc(SC)nc(SC)c1[N+](=O)[O-]
198 to 200	COc1cc(NC(C)=O)c(Cl)cc1C(=O)NN1CCN(C)CC1
172 to 173	O=C(NCc1ccc(Cl)nc1)C(Cl)=NNc1ccc(C(F)(F)F)cc1
125 to 127	CCCCCCCNC(=O)Nc1ccccc1C(=O)N1CCN(C(c2ccccc2)c2ccccc2)CC1
108	O=Cc1ccc(-c2nn(Cc3ccccc3)c3ccccc23)o1
187 to 188	CCc1cnc2c(NC(=O)c3c(Cl)cccc3Cl)cccc2c1CCBr
197 to 199	CCOC(=O)c1cnc2c3ccccc3ccn2c1=N
123 to 125	Fc1cccc(F)c1-c1c(Cl)nc(Cl)n1-c1ccc(Cl)cc1
145 to 147	COC(=O)c1c(C)nc2cc(OC)c(OC)cc2c1-c1ccnc(Cl)c1
104 to 106	COC(=O)CCc1ccc(CCc2csc(NC(C)=O)n2)s1

melting point [°C]	Compound
148 to 151	CN1CCN(c2nc(Nc3cccc(NS(C)(=O)=O)c3)nc3[nH]cnc23)CC1
155 to 158	CS(=O)(=O)OCCCOC(=O)c1[nH]c(-c2ccccc2)c2cc(Cl)ccc12
182 to 185	NC(=O)CN1C(=O)CN2C(=O)CCC12 (configuration not stated)
162 to 163	CN1CCN(c2ncc(-c3ccccc3)c(C(=O)N(C)Cc3cc(C(F)(F)F)cc(C(F)(F)F)c3)n2)CC1
105 to 106	CC(NC(=O)N(C)O)c1ccc(OCc2ccccc2)cc1 (configuration not stated)
56 to 57	CCOC(=O)C(Cc1cc(C)cc(OC(F)(F)C(F)F)c1)C(=O)c1ccc(F)cc1 (configuration not stated)
161 to 162	CCCOc1ccccc1-c1nc2c(C(=O)NCC)cccc2c(=O)[nH]1
81 to 84	C[C@H]1CCCC(C)(C)[C@@H]1C(=O)c1ccco1
90 to 93.5	COC(=O)c1ccc(C(=O)OC)c(SCc2ccccc2)c1
112 to 113	COc1ccc(C)cc1NC(=O)Nc1ccc(N2CCN(C(=O)Nc3ccc(C(O)CO)cc3C)CC2)cc1 (configuration not stated)
103 to 108	CC(=O)N1CCCC1CN1C(=O)C2(COc3cc4c(cc32)CCO4)c2ccccc21 (configuration not stated)
135 to 137	CCC(CC)c1ccc(Cl)c2nc3n(c12)CCCC(=O)N3c1ccc(Cl)cc1Cl
181 to 182	CC(=O)OCCc1c(-c2ccccc2)nc(N)n2ncnc12
198 to 200	Cc1ccc(C2C(=O)CCC2=O)c(C)c1
56 to 66	CCC(CC)C(NS(=O)(=O)c1ccc(Cl)c(Cl)c1)c1ccnn1-c1ccccc1 (configuration not stated)
143 to 144	COC(=O)c1nn(-c2ccc(OCc3ccccc3)cc2F)cc(OC)c1=O
167 to 168	CN(C)CCNC1=CC(=O)c2nc(-c3ccc4ccccc4c3)sc2C1=O
135 to 138	Fc1ccc2c(c1)nc(Cl)c1nnc(C(F)(F)F)n12
71	CN(C)C/C=C\c1ncccc1OCCO
139 to 141	CNC(=S)C1=C(O)C(C)(COC)Oc2ccc([N+](=O)[O-])cc21 (configuration not stated)
129 to 130	CS(=O)(=O)c1ccc(-n2nc(C(F)(F)F)cc2-c2ccc(-c3ccco3)cc2)cc1F
57 to 58	Cc1oc2c(C)cc(C=O)cc2c1C
148 to 150	O=C(O)c1nc(CCCc2ccccc2)c[nH]1
77 to 78	CCOC(=O)C(C#N)=Cc1cc(OC)c(N)c(OC)c1
234	CC(=O)OC1CSC(Oc2ccc(I)nc2F)C(OC(C)=O)C1OC(C)=O (configuration not stated)

melting point [°C]	Compound
178 to 179	O=C(c1ccccc1Cl)c1cc(Cl)ccc1C(=O)C(Br)CN1C(=O)c2ccccc2C1=O (configuration not stated)
179 to 182	Cn1c(COc2ccc(CC3SC(=O)NC3=O)cc2)nc2ccc(Oc3cccc(NC(=O)Nc4ccc5c(c4)OCO5)c3)cc21 (configuration not stated)
84 to 85	COc1cc2c(cc1OC)CC(=O)N(CCCCl)C=C2
110 to 112	CC(=O)COc1ccc(O)cc1
138 to 139	COC(=O)c1ccc(-c2nc(-c3ccc(OC(F)(F)F)cc3)cs2)cc1
186 to 188	COc1cc(Nc2c(C#N)cnc3cc(/C=C/CCO)c(OC)cc23)c(Cl)cc1Cl
54 to 55	Cc1cnc(CO)c(Cl)c1N1CCOCC1
170	COc1ccc(CN(C)CCOc2ccc(NC(=O)c3cc(SC)cc4c(=O)c5ccccc5[nH]c34)cc2)cc1OC
> 380	N#Cc1cccc2c1NC(=O)C2c1ncnc2nn(C3CCCC3)cc12 (configuration not stated)
153 to 154	O=C(c1ccc([N+](=O)[O-])cc1)N1Cc2ccccc2-c2ccccc21
207 to 208	CN(C1=CC(=O)c2nccnc2C1=O)c1ccccc1
234 to 236	CCC(=O)c1cc2c(=O)n(NS(C)(=O)=O)c(=O)[nH]c2cc1C(F)(F)F
118	O=S1(=O)N=C(c2ccccc2)c2ccccc21
170	CCS(=O)(=O)c1cc(C(=O)NCC2CCCN2CC2CCC2)c(OC)cc1N (configuration not stated)
225	Cc1cc(=O)[nH]nc1-c1ccc2nc(C3CC3)n(Cc3ccc(-c4ccccc4-c4nnn[nH]4)cc3)c2c1
99 to 100	O=C(CCc1ccc(OCc2ccccc2)cc1)c1ncc(-c2ccccn2)o1
274 to 278	O=c1cc(Nc2cc([N+](=O)[O-])ccc2Cl)[nH]n1-c1c(Cl)cc(Cl)cc1Cl
228 to 230	CS(=O)(=O)c1ccc(-c2cnn(CC(=O)c3ccccc3)c(=O)c2-c2ccc(F)cc2)cc1
161 to 163	CSc1ccc(/C=C(\NC(=O)c2ccc(OCC(C)C)cc2)C(=O)NCCO)cc1
160	N#CN=CNCc1cc(Cl)nc(Cl)c1
217 to 219	COc1ccc2c(Cc3c(Cl)cncc3Cl)nncc2c1C#Cc1ccccc1
48 to 49	Fc1ccc(-c2cc(CCOCc3ccccc3)cc(OCCCCCl)c2)cc1
156 to 157	CCOc1cc([N+](=O)[O-])c(N)cc1C(=O)OC
231	Cn1nc(-c2ccc(N)c([N+](=O)[O-])c2)c2ccccc21

Compound	melting point [°C]
Cc1cc(C(=O)NC2CC2)ccc1N1CCNCC1	172 to 173
CC(=O)NC(CC(C)C)C(=O)N1CC1C#N (racemic)	112 to 116
CC(C)c1cc(O)c2c(c1)OC(C)(C)C1=C2CN(CC(=O)NC(N)=O)CC1	164 to 166
